Measurements published in PMC9354042, “Discovery of BRAF/HDAC Dual Inhibitors Suppressing Proliferation of Human Colorectal Cancer Cells” (Frontiers in Chemistry, 2022).
“Also recorded” adds a separate entry of the source. Read-outs that look alike come from different tables or passages of the source.

Tests used:
BRAF (wild-type) [1] = biological target: T1, BRAF (wild-type) (Homo sapiens, UniProt P15056); experiment: wild-type BRAF enzymatic activity, Z'-Lyte kinase assay; type: biochemical; conditions: wild-type BRAF kinase; read-out: BRAF^wt enzymatic IC50
T1 construct: purchased Invitrogen
Method: (§1) The experiments were performed according to the instructions of the manufacturer. […] For each assay, 10 μl kinase reactions were added to 384-well plate, mixed thoroughly, and incubated for 1 hour at room temperature. Then, a 5 μl development solution was added to each well and the plate was incubated for another 1 h at room temperature. Then, a 5 μl stop reagent was loaded to stop the reaction. For the control setting, a 5 μl phospho-peptide solution instead of kinase/peptide mixture was used as 100% phosphorylation control. […] The plate was measured on an EnVision Multilabel Reader (Perkin-Elmer). Curve fitting and data presentations were performed using GraphPad Prism, version 5.0. Every experiment was repeated at least two times.

BRAF (wild-type) [2] = experiment: as above; type: biochemical; conditions: ratio of enzymatic IC50
Method: as §1

HDAC1 = biological target: T2, HDAC1 (Homo sapiens, UniProt Q13547); experiment: HDAC1 fluorescent-based enzymatic activity assay; type: biochemical
T2 construct: purchased BPS Bioscience
Method: (§2) The purified recombinant Human HDACs and their corresponding substrates were purchased from BPS Bioscience (BPS Bioscience Inc., United States). The assays were carried out in a 384-well format using the BPS fluorescent–based HDAC activity assay according to the manufacturer’s protocol. In brief, […] of the HDAC reaction mixture was composed of HDAC assay buffer, […] BSA, serial diluted test compounds, appropriate concentration of HDACs, and […] fluorogenic substrate, the mixture was incubated at 37°C for 60 min, and then stopped by the addition of developer containing trypsin and TSA. After 20 min of incubation, the fluorescence was detected at the excitation wavelength of 360 nm and the emission wavelength of 460 nm using the EnVision Multilabel Reader (PerkinElmer Inc., United States). The analytical software, GraphPad Prism 5.0 (GraphPad Software, Inc., United States) was used to generate IC50 value via non-linear regression analysis.

HDAC2 = biological target: T3, HDAC2 (Homo sapiens, UniProt Q92769); experiment: HDAC2 fluorescent-based enzymatic activity assay; type: biochemical; conditions: Table 3 isoform panel; read-out: Enzyme inhibition HDAC2 (Class I)
T3 construct: purchased BPS Bioscience
Method: as §2

HDAC3 = biological target: T4, HDAC3 (Homo sapiens, UniProt O15379); experiment: HDAC3 fluorescent-based enzymatic activity assay; type: biochemical; conditions: Table 3 isoform panel; read-out: Enzyme inhibition HDAC3 (Class I)
T4 construct: purchased BPS Bioscience
Method: as §2

HDAC4 = biological target: T5, HDAC4 (Homo sapiens, UniProt P56524); experiment: HDAC4 fluorescent-based enzymatic activity assay; type: biochemical; conditions: Table 3 isoform panel; read-out: Enzyme inhibition HDAC4 (Class IIA)
T5 construct: purchased BPS Bioscience
Method: as §2

HDAC5 = biological target: T6, HDAC5 (Homo sapiens, UniProt Q9UQL6); experiment: HDAC5 fluorescent-based enzymatic activity assay; type: biochemical; conditions: Table 3 isoform panel; read-out: Enzyme inhibition HDAC5 (Class IIA)
T6 construct: purchased BPS Bioscience
Method: as §2

[3] = test system: Ac-histone H3, Ac-α-tubulin, p-ERK in HT-29 cells; experiment: Western blot analysis of HDAC and RAF pathway in HT-29 cells; type: cell-based, human
Method: (§3) FIGURE 3 Characterization of dual inhibition of HDAC and RAF pathway. Western blot analysis of 14b in HCT116 cells (A) and in HT-29 cells (B). Cells were treated with 0 μM, 0.12 μM, 0.37 μM, 1.1 μM, 3.3 μM, and 10 μM of drugs and incubated for 6 h. The cell lysis was subjected to Western blot analysis.
(§4) The cells were treated with various concentrations of 14b for 6 h. Then, the cells were lysed using 1×SDS sample lysis buffer (CST recommended) with protease and phosphatase inhibitors. Cell lysates were loaded and electrophoresed onto 8–12% SDS-PAGE gel, and then the separated proteins were transferred to a PVDF film. The film was blocked with 5% BSA (Sigma-Aldrich, St. Louis, MO, United States) in a TBS solution containing 0.5% Tween-20 for 4 h at room temperature, then incubated with the corresponding primary antibody (1:1000–1:200) overnight at 4°C. After washing with TBST, HRP-conjugated secondary antibody was incubated for 2 h. The protein signals were visualized by the ECL Western Blotting Detection Kit (Thermo Scientific, Grand Island, NY, United States), and detected with Amersham Imager 600 system (GE, Boston, MA, United States).

[4] = test system: Ac-histone H3, Ac-α-tubulin, p-ERK in HCT116 cells; experiment: Western blot analysis of HDAC and RAF pathway in HCT116 cells; type: cell-based, human
Method: as §3, §4

P-ERK in B16 cells = experiment: Immunoblot analysis of P-ERK in B16 cells; type: cell-based; conditions: B16 mouse melanoma cells with wild type BRAF, 24 h
From the text: Supplementary Figure 2. 14b inhibit the phosphorylation of ERK in B16 cells.

T2 sequence (Q13547 whole entry): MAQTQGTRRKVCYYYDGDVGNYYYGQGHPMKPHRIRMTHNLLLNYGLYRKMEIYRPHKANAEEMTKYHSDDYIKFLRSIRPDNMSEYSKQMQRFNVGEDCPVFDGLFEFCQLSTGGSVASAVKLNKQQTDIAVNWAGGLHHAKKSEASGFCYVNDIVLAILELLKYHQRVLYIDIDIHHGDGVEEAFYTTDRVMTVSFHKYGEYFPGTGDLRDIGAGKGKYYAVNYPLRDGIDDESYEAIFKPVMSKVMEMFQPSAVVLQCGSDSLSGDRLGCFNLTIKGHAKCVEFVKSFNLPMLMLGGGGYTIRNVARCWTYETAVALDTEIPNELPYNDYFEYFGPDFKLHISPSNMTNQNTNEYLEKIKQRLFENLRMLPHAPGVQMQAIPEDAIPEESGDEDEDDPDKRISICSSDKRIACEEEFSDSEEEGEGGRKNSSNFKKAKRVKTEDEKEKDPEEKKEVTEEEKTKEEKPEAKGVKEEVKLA
T5 sequence (P56524 whole entry, canonical isoform): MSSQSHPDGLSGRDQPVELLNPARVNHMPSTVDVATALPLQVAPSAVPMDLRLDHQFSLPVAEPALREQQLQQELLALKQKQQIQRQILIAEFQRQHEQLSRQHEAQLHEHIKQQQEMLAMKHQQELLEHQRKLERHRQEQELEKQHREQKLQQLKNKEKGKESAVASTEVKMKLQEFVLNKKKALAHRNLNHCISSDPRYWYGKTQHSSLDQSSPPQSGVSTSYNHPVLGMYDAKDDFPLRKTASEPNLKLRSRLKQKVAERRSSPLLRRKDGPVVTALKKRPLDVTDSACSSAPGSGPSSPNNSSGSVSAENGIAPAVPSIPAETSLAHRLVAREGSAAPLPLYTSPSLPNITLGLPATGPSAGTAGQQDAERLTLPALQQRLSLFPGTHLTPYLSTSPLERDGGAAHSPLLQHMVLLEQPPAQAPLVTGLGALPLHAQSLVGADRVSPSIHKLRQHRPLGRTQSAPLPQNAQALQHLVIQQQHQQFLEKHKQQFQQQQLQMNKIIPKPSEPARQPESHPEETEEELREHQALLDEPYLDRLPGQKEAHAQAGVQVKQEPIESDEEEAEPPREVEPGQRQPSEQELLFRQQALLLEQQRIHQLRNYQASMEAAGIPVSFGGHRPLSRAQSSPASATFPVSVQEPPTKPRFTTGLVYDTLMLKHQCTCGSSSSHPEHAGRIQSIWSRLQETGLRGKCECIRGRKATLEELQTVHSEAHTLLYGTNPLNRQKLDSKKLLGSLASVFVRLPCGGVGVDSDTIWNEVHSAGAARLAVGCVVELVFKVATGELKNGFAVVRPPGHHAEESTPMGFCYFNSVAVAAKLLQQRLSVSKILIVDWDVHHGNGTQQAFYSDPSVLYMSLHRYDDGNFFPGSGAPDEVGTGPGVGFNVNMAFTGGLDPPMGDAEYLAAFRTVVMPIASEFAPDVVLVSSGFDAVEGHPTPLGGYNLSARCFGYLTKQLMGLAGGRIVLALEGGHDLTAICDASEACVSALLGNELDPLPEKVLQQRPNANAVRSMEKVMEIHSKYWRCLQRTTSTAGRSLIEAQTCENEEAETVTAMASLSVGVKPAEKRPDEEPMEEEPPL
T1 sequence (P15056 whole entry): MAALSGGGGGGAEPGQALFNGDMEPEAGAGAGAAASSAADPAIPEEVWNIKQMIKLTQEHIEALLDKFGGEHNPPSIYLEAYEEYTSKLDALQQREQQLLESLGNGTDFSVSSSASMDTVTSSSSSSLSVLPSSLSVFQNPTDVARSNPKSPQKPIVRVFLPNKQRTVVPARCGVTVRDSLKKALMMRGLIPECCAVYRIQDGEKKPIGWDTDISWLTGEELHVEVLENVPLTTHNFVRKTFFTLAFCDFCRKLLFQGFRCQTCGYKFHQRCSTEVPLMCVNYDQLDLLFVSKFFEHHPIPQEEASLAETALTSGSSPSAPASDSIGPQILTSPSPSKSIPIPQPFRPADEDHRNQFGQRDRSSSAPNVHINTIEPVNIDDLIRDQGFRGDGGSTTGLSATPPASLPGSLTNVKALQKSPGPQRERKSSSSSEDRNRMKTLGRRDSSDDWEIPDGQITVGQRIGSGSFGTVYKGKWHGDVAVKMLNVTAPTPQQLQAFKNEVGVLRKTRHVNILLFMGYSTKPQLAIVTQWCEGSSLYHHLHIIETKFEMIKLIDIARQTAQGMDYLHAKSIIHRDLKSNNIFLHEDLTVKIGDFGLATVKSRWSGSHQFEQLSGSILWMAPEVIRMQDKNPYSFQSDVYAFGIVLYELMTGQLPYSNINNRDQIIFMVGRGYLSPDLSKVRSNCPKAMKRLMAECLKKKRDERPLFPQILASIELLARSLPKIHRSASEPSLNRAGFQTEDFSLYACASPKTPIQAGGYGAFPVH
T4 sequence (O15379 whole entry, canonical isoform): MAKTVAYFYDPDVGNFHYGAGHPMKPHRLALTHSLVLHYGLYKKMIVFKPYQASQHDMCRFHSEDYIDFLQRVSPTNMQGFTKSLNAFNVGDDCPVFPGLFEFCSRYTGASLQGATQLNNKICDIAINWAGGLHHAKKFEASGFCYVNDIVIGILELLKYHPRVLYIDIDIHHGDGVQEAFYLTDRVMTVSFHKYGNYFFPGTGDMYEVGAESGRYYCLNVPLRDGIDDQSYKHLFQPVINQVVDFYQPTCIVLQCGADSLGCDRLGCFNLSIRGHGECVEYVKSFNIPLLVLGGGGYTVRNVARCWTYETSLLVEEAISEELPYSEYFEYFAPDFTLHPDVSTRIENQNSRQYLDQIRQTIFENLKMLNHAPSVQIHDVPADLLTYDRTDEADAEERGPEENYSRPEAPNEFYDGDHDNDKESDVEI
T4 sequence (Q9Y618 395-489 partner limits assumed): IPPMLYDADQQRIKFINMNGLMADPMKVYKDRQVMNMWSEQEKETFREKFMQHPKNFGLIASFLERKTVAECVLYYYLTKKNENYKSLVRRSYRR
T3 sequence (Q92769 whole entry, canonical isoform): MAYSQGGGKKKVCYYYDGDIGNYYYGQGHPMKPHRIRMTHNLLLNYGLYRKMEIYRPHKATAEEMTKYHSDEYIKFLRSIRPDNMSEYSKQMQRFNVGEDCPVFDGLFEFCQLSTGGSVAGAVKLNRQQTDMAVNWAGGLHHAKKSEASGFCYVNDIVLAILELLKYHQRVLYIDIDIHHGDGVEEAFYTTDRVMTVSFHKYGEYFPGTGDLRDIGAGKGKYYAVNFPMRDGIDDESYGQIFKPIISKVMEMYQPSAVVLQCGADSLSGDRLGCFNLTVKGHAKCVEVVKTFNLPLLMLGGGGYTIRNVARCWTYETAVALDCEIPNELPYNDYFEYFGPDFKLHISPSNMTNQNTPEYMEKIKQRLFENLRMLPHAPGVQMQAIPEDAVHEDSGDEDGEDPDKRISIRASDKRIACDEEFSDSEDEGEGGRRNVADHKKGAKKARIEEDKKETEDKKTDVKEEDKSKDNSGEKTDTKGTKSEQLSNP
T6 sequence (Q9UQL6 whole entry, canonical isoform): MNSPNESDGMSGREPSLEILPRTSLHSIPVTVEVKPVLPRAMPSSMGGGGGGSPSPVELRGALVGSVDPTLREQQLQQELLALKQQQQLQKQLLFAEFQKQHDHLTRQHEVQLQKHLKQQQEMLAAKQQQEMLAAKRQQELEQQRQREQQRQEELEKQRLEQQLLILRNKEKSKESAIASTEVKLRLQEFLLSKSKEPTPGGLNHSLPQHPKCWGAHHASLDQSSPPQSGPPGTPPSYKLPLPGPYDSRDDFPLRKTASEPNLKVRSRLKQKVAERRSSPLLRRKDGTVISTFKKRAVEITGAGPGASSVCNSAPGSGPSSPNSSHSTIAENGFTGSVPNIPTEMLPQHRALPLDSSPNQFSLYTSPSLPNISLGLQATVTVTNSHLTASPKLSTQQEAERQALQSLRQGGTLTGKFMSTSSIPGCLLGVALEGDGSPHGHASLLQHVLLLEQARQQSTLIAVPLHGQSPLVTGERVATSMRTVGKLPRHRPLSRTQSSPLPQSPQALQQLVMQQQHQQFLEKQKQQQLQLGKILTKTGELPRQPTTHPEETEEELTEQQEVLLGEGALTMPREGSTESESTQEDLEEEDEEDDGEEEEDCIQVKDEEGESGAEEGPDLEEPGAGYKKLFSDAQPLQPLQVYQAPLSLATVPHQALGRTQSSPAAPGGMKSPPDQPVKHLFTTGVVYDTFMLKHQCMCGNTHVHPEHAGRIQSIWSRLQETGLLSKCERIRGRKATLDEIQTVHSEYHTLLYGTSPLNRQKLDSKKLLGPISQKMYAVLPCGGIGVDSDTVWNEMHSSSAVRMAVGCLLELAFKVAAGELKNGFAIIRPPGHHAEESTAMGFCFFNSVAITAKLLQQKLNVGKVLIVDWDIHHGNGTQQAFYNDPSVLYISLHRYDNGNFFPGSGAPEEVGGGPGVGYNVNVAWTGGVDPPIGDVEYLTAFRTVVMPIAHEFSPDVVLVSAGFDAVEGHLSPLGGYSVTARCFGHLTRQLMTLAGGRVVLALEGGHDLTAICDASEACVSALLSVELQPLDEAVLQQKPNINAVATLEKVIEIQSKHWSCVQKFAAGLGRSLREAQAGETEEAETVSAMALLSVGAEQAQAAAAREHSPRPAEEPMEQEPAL

IC50 (BRAF (wild-type) [1]): 0.00407 µM
selectivity of BRAF^V600E over wild-type BRAF (BRAF (wild-type) [2]): about 2 fold
IC50 (HDAC1; Table 1, read-out: Enzymatic IC50 HDAC1): 0.494 µM
IC50 (HDAC1; Table 3 isoform panel, read-out: Enzyme inhibition HDAC1 (Class I)): 0.493 µM
IC50 (HDAC2): 0.747 µM
IC50 (HDAC3): 0.913 µM
IC50 (HDAC4): > 100 µM
IC50 (HDAC5): 52.9 µM
SMILES: CC(C)(C)c1nc(-c2cccc(NS(=O)(=O)c3c(F)cccc3F)c2F)c(-c2ccnc(NCCCCCCC(=O)NO)n2)s1 [14b, 7-{[4-(2-(Tert-Butyl)-4-(3-((2,6-Difluorophenyl)Sulfonamido)-2-Fluorophenyl)Thiazol-5-yl)Pyrimidin-2-yl]Amino}-N-Hydroxyheptanamide]
expression of BRAF [3]: did not affect the expression of BRAF itself
acetylated histone H3 (Ac-histone H3) ([3]; 0.12-10 μM, 6 h): upregulated
acetylated α-tubulin (Ac-α-tubulin) ([3]; 0.12-10 μM, 6 h): upregulated
phosphorylation of ERK (p-ERK) ([3]; 0.12-10 μM, 6 h): significantly inhibited at the lowest concentration of 0.12 μM
expression of BRAF ([4]; HCT116 cells): did not affect the expression of BRAF itself
phosphorylation of ERK (p-ERK) ([4]; HCT116 cells (wild-type BRAF, K-RAS G13D), 0.12-10 μM, 6 h): significantly inhibited phosphorylation of ERK
acetylated histone H3 (Ac-histone H3) ([4]; HCT116 cells, 0.12-10 μM, 6 h): upregulated
acetylated α-tubulin (Ac-α-tubulin) ([4]; HCT116 cells, 0.12-10 μM, 6 h): upregulated
phosphorylation of ERK (P-ERK) (P-ERK in B16 cells): downregulate P-ERK; also recorded: p-ERK inhibition was observed
